What was measured:
[1] = biological target: T1, Cyclin-dependent kinase 1/cyclin B1 (Homo sapiens, UniProt P06493+P14635); assay: Inhibition of starfish oocyte (Marthasteria glacialis) Cyclin-dependent kinase 1-cyclin B1 at a concentration of 100 uM; format: protein-complex assay; conditions: Asteroidea
Target sequence in this assay (P06493 whole entry, looked up): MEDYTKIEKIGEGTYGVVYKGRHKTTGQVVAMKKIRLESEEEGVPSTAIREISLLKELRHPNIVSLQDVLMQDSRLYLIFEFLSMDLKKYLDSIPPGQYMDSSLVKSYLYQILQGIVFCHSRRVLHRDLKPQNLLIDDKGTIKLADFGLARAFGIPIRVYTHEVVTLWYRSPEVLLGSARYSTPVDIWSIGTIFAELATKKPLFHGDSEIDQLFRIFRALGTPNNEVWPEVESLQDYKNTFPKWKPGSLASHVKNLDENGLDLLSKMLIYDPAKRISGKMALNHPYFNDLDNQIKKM
Target sequence in this assay (P14635 whole entry, looked up): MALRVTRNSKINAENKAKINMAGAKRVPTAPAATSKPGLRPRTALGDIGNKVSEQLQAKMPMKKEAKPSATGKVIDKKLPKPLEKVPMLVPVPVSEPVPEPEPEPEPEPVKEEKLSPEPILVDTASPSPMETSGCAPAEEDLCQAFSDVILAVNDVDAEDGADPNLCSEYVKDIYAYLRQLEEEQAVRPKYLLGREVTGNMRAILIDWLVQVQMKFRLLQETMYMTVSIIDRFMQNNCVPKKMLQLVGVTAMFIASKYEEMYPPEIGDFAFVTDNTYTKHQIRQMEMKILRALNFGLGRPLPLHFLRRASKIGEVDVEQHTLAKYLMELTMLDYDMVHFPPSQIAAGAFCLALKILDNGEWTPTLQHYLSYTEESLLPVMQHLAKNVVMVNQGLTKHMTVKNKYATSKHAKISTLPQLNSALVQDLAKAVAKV

[2] = biological target: T2, Cyclin-dependent kinase 2/cyclin A (Homo sapiens) (UniProt P24941+P20248+P78396); assay: Inhibition of human Cyclin-dependent kinase 2-cyclin A3 at a concentration of 100 uM; format: protein-complex assay
[3] = biological target: T3, Cyclin-dependent kinase 2/cyclin A (Homo sapiens, UniProt P24941); assay: Inhibition of human Cyclin-dependent kinase 2-cyclin A; format: protein-complex assay
[4] = biological target: T2, Cyclin-dependent kinase 2/cyclin A (Homo sapiens); assay: Inhibition of Cyclin-dependent kinase 2-cyclin A at 10 uM; format: protein-complex assay
[5] = biological target: T2, Cyclin-dependent kinase 2/cyclin A (Homo sapiens); assay: Inhibition of human Cyclin-dependent kinase 2-cyclin A at a concentration of 10 uM; format: protein-complex assay
[6] = biological target: T1, Cyclin-dependent kinase 1/cyclin B1; assay: Inhibition of starfish oocyte (Marthasteria glacialis) Cyclin-dependent kinase 1-cyclin B1 at a concentration of 10 uM; format: protein-complex assay; conditions: Asteroidea
Target sequence in this assay (P06493 whole entry, looked up): as the sequence (P06493 whole entry, looked up) above
Target sequence in this assay (P14635 whole entry, looked up): as the sequence (P14635 whole entry, looked up) above

[7] = biological target: T2, Cyclin-dependent kinase 2/cyclin A (Homo sapiens); assay: Inhibition of human Cyclin-dependent kinase 2-cyclin A at a concentration of 100 uM; format: protein-complex assay
[8] = biological target: T2, Cyclin-dependent kinase 2/cyclin A (Homo sapiens); assay: Inhibition of human Cyclin-dependent kinase 2-cyclin A at 100 uM; format: protein-complex assay
[9] = biological target: T2, Cyclin-dependent kinase 2/cyclin A (Homo sapiens); assay: Inhibition of human Cyclin-dependent kinase 2-cyclin A3 at 100 uM; format: protein-complex assay
[10] = test system: MCF7; assay: Inhibition of MCF-7 human breast carcinoma cell proliferation; format: functional
[11] = biological target: T1, Cyclin-dependent kinase 1/cyclin B1; assay: Inhibition of starfish oocyte (Marthasteria glacialis) Cyclin-dependent kinase 1-cyclin B1; format: protein-complex assay, Asteroidea
Target sequence in this assay (P06493 whole entry): as the sequence (P06493 whole entry, looked up) above
Target sequence in this assay (P14635 whole entry): as the sequence (P14635 whole entry, looked up) above

[12] = biological target: T2, Cyclin-dependent kinase 2/cyclin A (Homo sapiens); assay: Inhibition of Cyclin-dependent kinase 2-cyclin A at 100 uM; format: protein-complex assay
[13] = biological target: T3, Cyclin-dependent kinase 2/cyclin A; assay: Inhibition of human Cyclin-dependent kinase 2-cyclin A3; format: protein-complex assay

Structure (SMILES)	inhibition [1] [%]	IC50 [3] [µM]	further results
CC1(C)OCC(COc2nc(N)nc3[nH]cnc23)O1 (stereo not drawn)	43	–	inhibition [2]: 36%
CC/C=C/CCOc1nc(N)nc2[nH]cnc12	–	69	–
COc1cccc(COc2nc(N)nc3[nH]cnc23)c1	65	–	inhibition [4]: 49%
CCCCOc1nc(N)nc2[nH]cnc12	–	48	–
Nc1nc(OCC2COC3(CCCCC3)O2)c2[nH]cnc2n1 (stereo not drawn)	26	–	inhibition [2]: 29%
C=CCOc1nc(N)nc2nc[nH]c12	–	78	–
C=C(COc1nc(N)nc2[nH]cnc12)C(C)C	–	16	–
Nc1nc(OCCc2ccccc2)c2nc[nH]c2n1	–	65	–
Nc1nc(OCC23CC4CC(CC(C4)C2)C3)c2nc[nH]c2n1	–	–	inhibition [5]: 29%; inhibition [6]: 55%
CC1(C)OC[C@H](COc2nc(N)nc3[nH]cnc23)O1	31	–	inhibition [2]: 27%
C#CCOc1nc(N)nc2nc[nH]c12	–	90	–
C=C(C)[C@H]1CC=C(COc2nc(N)nc3[nH]cnc23)CC1	–	–	inhibition [5]: 18%; inhibition [6]: 17%
CC(C)CCOc1nc(N)nc2nc[nH]c12	–	26	–
CC1(C)OC2OC(COc3nc(N)nc4[nH]cnc34)C3OC(C)(C)OC3C2O1 (stereo not drawn)	10	–	inhibition [2]: 4%
COc1nc(N)nc2nc[nH]c12	36	–	inhibition [7]: 35%
Nc1nc(OCC(O)CO)c2nc[nH]c2n1 (stereo not drawn)	35	–	inhibition [7]: 33%
Cc1cccc(COc2nc(N)nc3nc[nH]c23)c1	70	–	inhibition [8]: 52%
COCC(COc1nc(N)nc2[nH]cnc12)OC (stereo not drawn)	49	–	inhibition [7]: 41%
Nc1nc(OCC2CCCCO2)c2nc[nH]c2n1 (stereo not drawn)	50	–	inhibition [9]: 43%
Nc1nc(OCC2CCCCC2)c2nc[nH]c2n1	–	–	GI50 [10]: 20 µM

Structure (SMILES)	inhibition [1] [%]	IC50 [3] [µM]	further results
CCOc1nc(N)nc2[nH]cnc12	48	–	inhibition [7]: 51%
Nc1nc(OCC2CCCO2)c2[nH]cnc2n1 (stereo not drawn)	49	–	inhibition [7]: 40%
CC(C)C(=O)COc1nc(N)nc2nc[nH]c12	41	–	inhibition [7]: 31%
CC(C)COc1nc(N)nc2[nH]cnc12	–	42	–
CCCCCCCOc1nc(N)nc2[nH]cnc12	–	> 100	IC50 [11]: 62 µM
C=C(CC)COc1nc(N)nc2[nH]cnc12	–	21	–
C=CCCCCOc1nc(N)nc2[nH]cnc12	–	47	–
CCCCCOc1nc(N)nc2[nH]cnc12	–	49	–
Nc1nc(OCc2ccc3ccccc3c2)c2[nH]cnc2n1	–	–	inhibition [5]: 9%; inhibition [6]: 12%
Nc1nc(OCC2CC=CCC2)c2[nH]cnc2n1 (stereo not drawn)	–	13	GI50 [10]: 37 µM
Nc1cccc(COc2nc(N)nc3[nH]cnc23)c1	65	–	inhibition [12]: 52%
Nc1nc(OCCC2CCCCC2)c2nc[nH]c2n1	–	44	–
Nc1nc(OCC2=CCCCC2)c2[nH]cnc2n1	–	22	–
Nc1nc(OCC2CCCNC2)c2nc[nH]c2n1 (stereo not drawn)	70	–	inhibition [2]: 64%
Nc1nc(OCC2CCCC2)c2nc[nH]c2n1	–	21	–
C=C(COc1nc(N)nc2nc[nH]c12)c1ccccc1	–	34	GI50 [10]: 28 µM
CCC(C)COc1nc(N)nc2nc[nH]c12 (stereo not drawn)	–	15	–
Nc1nc(OC[C@@H]2CCC(=O)N2)c2nc[nH]c2n1	22	–	inhibition [2]: 15%
COC1OC(COc2nc(N)nc3[nH]cnc23)C2OC(C)(C)OC12 (stereo not drawn)	10	–	GI50 [10]: > 100 µM; inhibition [2]: 16%
Nc1nc(OCc2cccc3ccccc23)c2nc[nH]c2n1	–	–	inhibition [5]: 3%; inhibition [6]: 10%

Structure (SMILES)	inhibition [1] [%]	IC50 [3] [µM]	further results
CCC(C)Oc1nc(N)nc2[nH]cnc12 (stereo not drawn)	–	25	–
Nc1nc(OCc2ccccc2)c2[nH]cnc2n1 [6-O-BENZYLGUANINE]	–	35	–
Nc1nc(OCC=C2CCCCC2)c2nc[nH]c2n1	–	–	inhibition [5]: 12%; inhibition [6]: 21%
CCC(COc1nc(N)nc2[nH]cnc12)(OC)OC	–	20	IC50 [11]: 19 µM
Nc1nc(OCC2CCNCC2)c2nc[nH]c2n1	52	–	inhibition [2]: 43%
CC(=O)COc1nc(N)nc2[nH]cnc12	15	–	inhibition [7]: 16%
Nc1nc(OCc2cccc(Cl)c2)c2nc[nH]c2n1	–	–	inhibition [6]: 28%; inhibition [4]: 19%
Nc1nc(OCc2cccnc2)c2nc[nH]c2n1	55	–	inhibition [2]: 43%
CCOC.CCOC(C)COc1[nH]c(N)nc2ncnc1-2 (stereo not drawn)	–	33	–
CC1(C)OC[C@@H](COc2nc(N)nc3[nH]cnc23)O1	46	–	inhibition [2]: 39%
CC(C)C1(COc2nc(N)nc3[nH]cnc23)OCCO1	–	–	IC50 [13]: 65 µM
Nc1nc(OCC2=CCCC2)c2[nH]cnc2n1	–	31	–
CC(C)Oc1[nH]c(N)nc2ncnc1-2	–	75	–
Nc1nc(OC[C@H]2CCC(=O)N2)c2nc[nH]c2n1	50	–	inhibition [2]: 35%
Nc1nc(OCC2COc3ccccc3O2)c2nc[nH]c2n1 (stereo not drawn)	52	–	inhibition [2]: 52%
Nc1nc(OCc2ccccn2)c2nc[nH]c2n1	58	–	inhibition [2]: 43%
C=C(C)COc1nc(N)nc2nc[nH]c12	–	35	–
CCCOc1nc(N)nc2nc[nH]c12	–	67	–
